Assay results as given in patent US10266545B2, “Coumarin derivative as antiviral agent, pharmaceutical composition thereof, its preparation and use” (I-NOVA MEDICINSKA ISTRAZIVANJA D.O.O., priority 2016, dated 2019).

Assays:
HIV-1 = experiment: Viral load by FDA approved Real-Time PCR test (Abbott m2000) in HIV-1 infected MT-4 cells; format: cell-based, HIV-1 subtype B; settings: acute infected MT-4 cells with HIV-1, treated at MNC 0.01 mM
Experimental: The preparation of the MT-4 cell line and HIV-1 culture was the same as in previously described studies. Monitoring of the amount of virions during anti-viral analysis by measuring of the viral load with FDA approved test was performed as follows: The study was conducted with Real-Time polymerase chain reaction (PCR) test for in vitro quantitative assay of HIV-I with automated system Abbott Molecular's m2000, approved by the United States (US) Food and Drug Administration (FDA), and with the CE mark. Extraction of viral nucleic acid was carried out with an automatic extractor with magnetic particles—Abbott Molecular's m2000sp and Real-Time amplification; detection was performed with m2000rt. The sensitivity and range of the test was 40 (1.6 log copies/ml) to 10,000,000 (7.0 log copies/ml) copies/ml by the extraction of 1 ml of sample. The target region of the viral genome was a fragment of the integrase gene pol. The test was designed to detect HIV-1 subtypes A-H, group […] and N. In every test sample, an internal control was placed.
The study included three controls: negative, low positive, and high positive with the following result: • (i) negative control—result negative (not detected); • (ii) low positive control—result 938 copies/ml (2.97 log) control levels; and • (iii) high positive control—result 92,927 copies/ml (4.97 log) control levels. […]

[1] = test system: replication of HIV-1 in the infected MT-4 cells (endogenous RT); experiment: Endogenous RT activity in culture fluid of HIV-1 infected MT-4 cells (HS-Lenti RT activity kit); format: cell-based, HIV-1 subtype B; settings: for inhibition at 0.1 µM: 0.0001 mM; for inhibition at 5 µM: 0.005 mM; for inhibition at 10 µM: 0.01 mM
Experimental: Furthermore, antiviral activity of compound 1 was studied on reverse transcriptase (RT) activity to elucidate potential mechanism of its antiviral action. This was done by using MT-4 cell line which […] with HIV-1. Source of HIV-1 culture fluid was chronically infected and producing HIV-1 subtype B cell line H9/HTLV III B.
Reverse transcriptase (RT) activity was determined: • (a) in the culture fluid of infected HIV-1 MT-4 cells at 72 hours after their infection (viral control); • (b) in the culture fluid of non-infected with HIV-1 cells at 72 hours and culturing without the addition of any substance (cell control); and • (c) in the culture fluid infected with HIV-1 MT-4 cells at 72 hours after infecting them, in which the desired concentration of the test compound 1 or the control compound 2 to the growth medium was added.
RT activity was determined according to the instructions of the producer. Separately was reported RT activity of standard recombinant reverse transcriptase (rRT), available in every kit. It was prepared 12-fold dilutions of the standard rRT. The manufacturer provides data on the amount of rRT in pg/well and pg/ml for each 12-fold dilution. The method used represents colorimetric method for non-radioactive determination of RT activity. It includes two stages: • (1) the synthesis of reverse transcript at the 3- or 24-hours incubation at 33° C. (which was determined experimentally); and • (2) quantitative determination of the resulting product.
In the synthesis of DNA using bromine deoxyuridine triphosphate (Brd UTP), which enter into the composition of the reaction mixture. It is included in the structure of the matrix/primer making up the DNA chain. Determination of incorporated Brd UTP was done by tracer-antibody Brd UTP, conjugated to the enzyme alkaline phosphatase. Followed colorimetrically determining the absorbance at A405 nm, which is proportional to the RT activity in the sample. According to the manufacturer, RT activity was considered positive when A405 values for the sample exceeded at least 2 times the values of A405 for negative control. Otherwise the sample was reported as such lacking RT activity, i.e. negative. The test was done by comparing the RT activity in the virus controls (100%) reported with viral RT activity in the wells treated with the test substance in the different concentrations in strict absence of RT activity in control cells. Percent inhibition of replication using the RT test was expressed as the difference between 100% (positive viral control without inhibitor) and % reported RT activity in the wells treated with the inhibitor (compounds 1 or 2) at various concentrations.
The measurement of RT activity is a widespread method for the quantitative determination of retroviruses replication. In the experimental set-up, primarily endogenous activity in supernatants was measured, i.e. in the culture fluid of virus infected cells and treated/untreated with inhibitor at 72 hours after cultivation.
For the control, commonly used substance with proven antiviral activity was employed; in our case, we used Kivexa, which contains 600 mg Abacavir and 300 mg of Lamivudine, which is applied in clinical practice as nucleoside inhibitor of RT. In the presence of RT inhibition in the test, it is concluded that not only the replication of the virus is inhibited, but also probably the target of the inhibitory effect is RT itself. To confirm this conclusion, it is necessary that percentage (%) of inhibition of the RT coincides with the % inhibition in the microtiter MTT assay. […] Reaction mixture supplemented with inhibitor was prepared at desired concentration for the assay, and then, to the mixture, recombinant RT was added with a known activity and concentration. After incubation, we determined whether the activity of the enzyme shall be amended (inhibited) by action of the compounds 1 or 2. […]

[2] = Human immunodeficiency virus 1, MT4, endogenous RT in culture liquid

SMILES | Viral load (log) (HIV-1) | inhibition at 0.001 µM ([1]; Human immunodeficiency virus 1, MT4, endogenous RT in culture liquid, 0.000001 mM) | inhibition at 0.01 µM ([1]; Human immunodeficiency virus 1, MT4, endogenous RT in culture liquid, 0.00001 mM) | inhibition at 0.1 µM [1, 2] | inhibition at 5 µM [1, 2] | inhibition at 10 µM [1, 2] | inhibition of HIV-1 infectivity in MT-4 cells ([1]; Table 4) | inhibition at 1 µM ([1]; Human immunodeficiency virus 1, MT4, endogenous RT in culture liquid, 0.001 mM)
O=c1oc2cc(O)cc(O)c2c(O)c1-c1coc2c1c(=O)oc1cc(O)cc(O)c12 [Compound 1, 7,9-dihydroxy-3-(4,5,7-trihydroxy-2-oxo-2H-chromene-3-yl)-4H-furo[3,2-c]chromen-4-one] | (3.01 log) | 1.3% | 50.7% | 55% | 76.6% | 89% | > 89% | 
O=c1oc2cc(O)c(O)cc2c(O)c1-c1coc2c1c(=O)oc1cc(O)c(O)cc12 [Compound 2, 7,8-dihydroxy-3-(4,6,7-trihydroxy-2-oxo-2H-chromen-3-yl)-4H-furo[3,2-c]chromen-4-one, reference compound] | (3.09 log) |  |  | 0% | 51% | 56.3% |  | 25.7%
